From ChEMBL document CHEMBL3046328, “Ligand-based pharmacophore detection, screening of potential pharmacophore and docking studies, to get effective glycogen synthase kinase inhibitors” (Med Chem Res, 2013)

Legend:
[1] = target: T1, Glycogen synthase kinase-3 (Homo sapiens, UniProt P49840+P49841); assay: Inhibition of GSK3 (unknown origin); format: protein assay
[2] = target: T1, Glycogen synthase kinase-3; assay: Inhibition of GSK3 (unknown origin) at 1 uM; format: protein assay
[3] = target: Mitogen-activated protein kinase 1 (Homo sapiens, UniProt P28482); assay: Inhibition of ERK2 (unknown origin)
Sequence of Mitogen-activated protein kinase 1 (P28482 whole entry): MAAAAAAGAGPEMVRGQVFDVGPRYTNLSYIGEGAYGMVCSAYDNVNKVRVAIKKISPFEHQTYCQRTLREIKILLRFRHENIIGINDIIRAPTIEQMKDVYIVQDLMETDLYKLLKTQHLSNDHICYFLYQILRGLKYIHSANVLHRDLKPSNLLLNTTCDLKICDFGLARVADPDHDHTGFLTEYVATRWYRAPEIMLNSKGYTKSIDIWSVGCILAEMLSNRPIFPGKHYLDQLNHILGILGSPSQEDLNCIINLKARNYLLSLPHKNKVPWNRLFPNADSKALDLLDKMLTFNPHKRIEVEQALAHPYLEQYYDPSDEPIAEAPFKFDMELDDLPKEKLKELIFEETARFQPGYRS

Aurora kinase A = target: T2, Aurora kinase A (Homo sapiens, UniProt O14965); assay: Inhibition of Aurora2 (unknown origin)
T2 sequence (O14965 whole entry): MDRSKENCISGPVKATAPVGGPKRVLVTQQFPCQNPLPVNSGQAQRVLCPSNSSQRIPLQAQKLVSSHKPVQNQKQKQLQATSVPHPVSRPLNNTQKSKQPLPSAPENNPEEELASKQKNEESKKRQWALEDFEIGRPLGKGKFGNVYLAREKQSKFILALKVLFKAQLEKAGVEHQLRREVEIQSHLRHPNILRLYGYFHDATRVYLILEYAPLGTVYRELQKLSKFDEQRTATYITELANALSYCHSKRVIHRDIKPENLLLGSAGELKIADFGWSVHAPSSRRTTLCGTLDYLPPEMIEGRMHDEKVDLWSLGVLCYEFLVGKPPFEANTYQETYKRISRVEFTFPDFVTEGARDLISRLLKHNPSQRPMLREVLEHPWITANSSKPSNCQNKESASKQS

[4] = target: Proto-oncogene tyrosine-protein kinase Src (Homo sapiens, UniProt P12931); assay: Inhibition of SRC (unknown origin)
Sequence of Proto-oncogene tyrosine-protein kinase Src (P12931 2-536 limits assumed): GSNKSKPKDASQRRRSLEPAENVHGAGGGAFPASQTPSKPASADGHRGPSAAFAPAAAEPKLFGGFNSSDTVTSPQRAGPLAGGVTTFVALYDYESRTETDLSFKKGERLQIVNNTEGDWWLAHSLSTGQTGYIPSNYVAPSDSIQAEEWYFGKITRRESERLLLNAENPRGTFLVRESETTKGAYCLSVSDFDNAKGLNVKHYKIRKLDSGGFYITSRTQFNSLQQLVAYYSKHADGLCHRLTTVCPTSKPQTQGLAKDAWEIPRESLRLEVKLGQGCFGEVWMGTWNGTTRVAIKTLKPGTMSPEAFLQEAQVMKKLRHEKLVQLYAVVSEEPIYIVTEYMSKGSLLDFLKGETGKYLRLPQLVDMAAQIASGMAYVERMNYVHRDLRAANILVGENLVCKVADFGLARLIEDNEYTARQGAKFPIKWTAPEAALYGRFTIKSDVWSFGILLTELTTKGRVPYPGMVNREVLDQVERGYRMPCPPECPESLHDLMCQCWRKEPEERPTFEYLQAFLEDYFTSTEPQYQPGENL

[5] = target: Glycogen synthase kinase-3 beta (Homo sapiens, UniProt P49841); assay: Inhibition of GSK3beta (unknown origin)
Sequence of Glycogen synthase kinase-3 beta (P49841 whole entry): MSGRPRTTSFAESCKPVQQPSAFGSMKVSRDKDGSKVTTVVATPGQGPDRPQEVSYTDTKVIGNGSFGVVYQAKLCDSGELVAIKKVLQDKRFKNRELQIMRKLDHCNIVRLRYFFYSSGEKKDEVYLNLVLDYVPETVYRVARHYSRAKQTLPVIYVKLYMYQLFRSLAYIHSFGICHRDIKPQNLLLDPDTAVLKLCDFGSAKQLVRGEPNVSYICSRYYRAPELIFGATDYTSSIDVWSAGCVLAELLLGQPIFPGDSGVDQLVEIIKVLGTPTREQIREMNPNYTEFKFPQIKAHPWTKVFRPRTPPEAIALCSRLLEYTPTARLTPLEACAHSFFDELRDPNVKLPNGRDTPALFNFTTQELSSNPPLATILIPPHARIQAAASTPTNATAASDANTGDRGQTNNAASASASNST

T1 sequence (P49840 whole entry, looked up): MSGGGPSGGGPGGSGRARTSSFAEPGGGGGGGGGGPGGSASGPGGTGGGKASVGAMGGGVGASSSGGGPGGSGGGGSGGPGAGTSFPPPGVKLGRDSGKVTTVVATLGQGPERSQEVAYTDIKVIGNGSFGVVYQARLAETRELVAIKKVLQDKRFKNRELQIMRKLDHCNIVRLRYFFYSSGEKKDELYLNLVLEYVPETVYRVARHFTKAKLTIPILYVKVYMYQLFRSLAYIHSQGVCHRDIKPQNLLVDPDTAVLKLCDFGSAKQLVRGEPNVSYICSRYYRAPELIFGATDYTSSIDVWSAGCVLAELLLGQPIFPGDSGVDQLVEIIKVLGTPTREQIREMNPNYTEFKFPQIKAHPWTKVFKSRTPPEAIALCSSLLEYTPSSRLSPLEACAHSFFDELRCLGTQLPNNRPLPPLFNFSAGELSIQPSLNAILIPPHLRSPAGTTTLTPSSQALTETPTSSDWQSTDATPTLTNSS
T1 sequence (P49841 whole entry, looked up): as the sequence (P49841 whole entry) above

SMILES	IC50 [1] [µM]	Ki [3] [µM]	Ki [4] [µM]	Ki (Aurora kinase A) [µM]	Ki [1] [µM]	other results
C[n+]1c2ccccc2[n+]2[nH]c3ccccc3n12	1	–	–	–	–	–
CCSc1nc2c([nH]1)[nH]c1ccccc12	–	–	–	–	–	inhibition [2]: 63%
O=[N+]([O-])c1ccc2c(c1)[n+]([O-])c1c3ccccc3[nH]c1[n+]2[O-]	–	< 1	–	–	–	IC50 (Aurora kinase A): < 5 µM
CCN(CC)CCCNc1nc2ccccc2c2[nH]c3ccc(OC)cc3c12	1	–	–	–	–	–
CCN(Cc1cn2cccc(C)c2n1)Cc1nc2ccccc2c(=O)[nH]1	< 10	–	–	–	–	–
Cc1cccn2cc(CN(Cc3nc4ccccc4c(=O)[nH]3)C(C)C)nc12	–	1000	< 0.1	< 100	< 100	–
Cc1ccc(-c2c[nH]c(C3COCCN3Cc3c[nH]c4ccccc34)n2)cc1 (stereo not given)	–	–	–	–	–	IC50 [5]: 0.12 µM
O=C(N=c1[nH]c2ccccc2[nH]1)NC[C@H]1CCC[C@@H](CNC(=O)N=c2[nH]c3ccccc3[nH]2)C1	1	–	–	–	–	–

More lines, main results first:

IC50 [1] [µM]	Ki [3] [µM]	Ki [4] [µM]	Ki (Aurora kinase A) [µM]	Ki [1] [µM]	SMILES	other results
–	1000	< 0.1	< 100	< 100	Cc1nc[nH]c1[C@@H]1c2nc[nH]c2CCN1Cc1nc2ccccc2[nH]1	–
–	1000	< 0.1	< 100	< 100	Cc1nc[nH]c1[C@H]1c2nc[nH]c2CCN1Cc1nc2ccccc2[nH]1	–
